Target: T1, BRD4 (first bromodomain, BRD4-BD1) (Homo sapiens, UniProt O60885)
T1 construct: BRD4-BD1 (first bromodomain)
Experiment: fluorescence polarization competitive inhibition assay
Type: binding

Ki: 14.9 ± 0.97 nM
Structure (SMILES): Cc1sc2c(c1C)C(c1ccc(Cl)cc1)=N[C@@H](CC(=O)NCCOCCOCCOCCOCCOCCOCCOCCOCc1cn(-c3ccc4c(NCCCNCc5ccc6[nH]ccc6c5)ccnc4c3)nn1)c1nnc(C)n1-2 [105B]

Source: publication doi:10.1101/2025.11.03.686228, “Design of Tissue-Selective PROTACs Through Recruiting E3 Ligase Scaffolding Protein MAGEA11” (bioRxiv, 2025)
